Reference: patent US20250206730A1 (AUTOTELIC BIO INC., priority 2022, published 2025)

What was measured:
TGF-β signaling = experiment: Assay for evaluating cellular inhibition of TGF-β signaling, HEK293 (SBE reporter) luciferase reporter; type: cell-based; settings: Homo sapiens; HEK293 (SBE reporter) stable cells, 0.5% FBS, 2 h pre-treatment, TGF-β1 2 ng/mL 24 h; read-out: IC50 HEK 293 Cell
Procedure: [Example 2] Assay for Evaluating Cellular Inhibition of TGF-β Signaling
4T1 (SBE-luc2P) transient pool that have SBE-luc2P (hygro) expression plasmid or HEK293 (SBE reporter) stable cells (BPS bioscience) were seeded at 6×10^3 cells/well or 2.5×10^4 cells/well in 96-well plate, respectively. 4T1 (SBE-luc2P) transient pool were pre-treated with novel compound synthesized in Example 1 above in 0.2% FBS at approximately 60% confluence at 37° C. in 5% CO2. Also, HEK293 (SBE reporter) stable cells were pre-treated with each test compounds of formula in 0.5% FBS at approximately 80% confluence at 37° C. in 5% CO2. After 2 hours, cells were treated with TGF-β1 (2 ng/mL) for 24 h at 37° C. in 5% CO2. Cell lysates were prepared using Luciferase Assay (Promega) according to the manufacturer's instruction, and luminescence was measured by a plate reader, Biotek Synergy H1 (Vermont, USA).

ALK5 kinase = biological target: T1, ALK5 kinase (Homo sapiens, UniProt P36897); experiment: LanthaScreen Eu Kinase Binding Assay; settings: Kinase Tracer 178, Eu-anti-GST Antibody, read-out: IC50 Enzyme
T1 sequence (P36897 34-503): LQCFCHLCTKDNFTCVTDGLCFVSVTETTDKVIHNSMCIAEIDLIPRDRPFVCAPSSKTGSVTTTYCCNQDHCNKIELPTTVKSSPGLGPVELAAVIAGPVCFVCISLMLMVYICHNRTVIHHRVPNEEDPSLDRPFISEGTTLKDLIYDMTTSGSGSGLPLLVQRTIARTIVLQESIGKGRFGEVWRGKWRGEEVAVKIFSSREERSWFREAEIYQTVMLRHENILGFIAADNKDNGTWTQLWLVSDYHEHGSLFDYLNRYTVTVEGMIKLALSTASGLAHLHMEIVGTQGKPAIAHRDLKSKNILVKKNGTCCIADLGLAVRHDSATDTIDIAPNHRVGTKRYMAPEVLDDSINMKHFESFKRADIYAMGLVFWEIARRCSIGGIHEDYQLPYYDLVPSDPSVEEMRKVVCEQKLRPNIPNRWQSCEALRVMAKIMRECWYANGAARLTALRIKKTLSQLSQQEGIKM
In short: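 Tracer-displacement TR-FRET: after 30 min RT compound–kinase preincubation, Eu-labelled anti-GST antibody plus Kinase Tracer 178 were incubated 60 min at RT. Binding was read as a lower 665 nm/615 nm emission ratio (excitation 340 nm).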

Row | SMILES | IC50 (TGF-β signaling) [nM] | IC50 (ALK5 kinase) [nM]
1 | CCc1nc(-c2ccccc2)c(Oc2ccnc(Nc3cc(C(N)=O)ccn3)n2)s1 [A-242, 2-((4-((2-Ethyl-4-phenylthiazol-5-yl)oxy)pyrimidin-2-yl)amino)isonicotinamide] | > 100 | 
2 | CCc1nc(-c2ccccc2)c(Oc2ccnc(Nc3cccc(C(N)=O)c3)n2)s1 [A-243, 3-((4-((2-Ethyl-4-phenylthiazol-5-yl)oxy)pyrimidin-2-yl)amino)benzamide] | < 100 | 
3 | CCc1nc(-c2ccccc2)c(Oc2ccnc(Nc3ccc(C(=O)O)cn3)n2)s1 [A-244, 6-((4-((2-Ethyl-4-phenylthiazol-5-yl)oxy)pyrimidin-2-yl)amino)nicotinic acid] | > 100 | 
4 | CCc1nc(-c2ccccc2)c(Oc2ccnc(Nc3ccc(C(N)=O)cn3)n2)s1 [A-245, 6-((4-((2-Ethyl-4-phenylthiazol-5-yl)oxy)pyrimidin-2-yl)amino)nicotinamide] | > 100 | 
5 | CCc1nc(-c2ccccc2)c(Oc2ccnc(Nc3ccc(C(=O)O)cc3)n2)s1 [A-246, 4-((4-((2-Ethyl-4-phenylthiazol-5-yl)oxy)pyrimidin-2-yl)amino)benzoic acid] | < 100 | 
6 | CCc1nc(-c2cccc(C)n2)c(Oc2ccnc(Nc3ccnc(C(N)=O)c3)c2)s1 [A-264, 4-((4-((2-Ethyl-4-(6-methylpyridin-2-yl)thiazol-5-yl)oxy)pyridin-2-yl)amino)picolinamide] | < 100 | < 100
7 | CCc1nc(-c2cccc(C)n2)c(Oc2ccnc(Nc3ccc(C(=O)NCCN(C)C)cn3)c2)s1 [A-269, N-(2-(Dimethylamino)ethyl)-6-((4-((2-ethyl-4-(6-methylpyridin-2-yl)thiazol-5-yl)oxy)pyridin-2-yl)amino)nicotinamide] | < 100 | < 100
8 | CCc1nc(-c2cccc(C)n2)c(Oc2ccnc(Nc3ccc(C(=O)OCC4CC4)cn3)c2)s1 [A-270] | < 100 | < 100
9 | CCc1nc(-c2cccc(C)n2)c(Oc2ccnc(Nc3ccc(C(=O)OCCN(C)C)cn3)c2)s1 [A-271, 2-(Dimethylamino)ethyl 6-((4-((2-ethyl-4-(6-methylpyridin-2-yl)thiazol-5-yl)oxy)pyridin-2-yl)amino)nicotinate] | < 100 | < 100
10 | CCc1nc(-c2cccc(C)n2)c(Oc2ccnc(Nc3cccc(NS(C)(=O)=O)c3)c2)s1 [A-272, N-(3-((4-((2-ethyl-4-(6-methylpyridin-2-yl)thiazol-5-yl)oxy)pyridin-2-yl)amino)phenyl)methanesulfonamide] | < 100 | 
11 | CCc1nc(-c2cccc(C)n2)c(Oc2ccnc(Nc3ccc(C(=O)Nc4cc(F)cc(C(=O)OCCN(C)C)c4)cn3)c2)s1 [A-273, 2-(Dimethylamino)ethyl 3-(6-((4-((2-ethyl-4-(6-methylpyridin-2-yl)thiazol-5-yl)oxy)pyridin-2-yl)amino)nicotinamido)-5-fluorobenzoate] | > 100 | 
12 | Cc1cccc(-c2nc(C3CC3)sc2Oc2ccnc(Nc3cc(C(N)=O)ccn3)c2)n1 [A-276, 2-((4-((2-Cyclopropyl-4-(6-methylpyridin-2-yl)thiazol-5-yl)oxy)pyridin-2-yl)amino)isonicotinamide] | < 100 | < 100
13 | Cc1cccc(-c2nc(C3CC3)sc2Oc2ccnc(Nc3cccc(S(N)(=O)=O)c3)c2)n1 [A-277, 3-((4-((2-Cyclopropyl-4-(6-methylpyridin-2-yl)thiazol-5-yl)oxy)pyridin-2-yl)amino)benzenesulfonamide] | < 100 | < 100
14 | Cc1cccc(-c2nc(C3CC3)sc2Oc2ccnc(Nc3cccc(C(N)=O)n3)c2)n1 [A-278, 6-((4-((2-Cyclopropyl-4-(6-methylpyridin-2-yl)thiazol-5-yl)oxy)pyridin-2-yl)amino)picolinamide] | < 100 | < 100
15 | CNC(=O)c1cccc(Nc2cc(Oc3sc(C4CC4)nc3-c3cccc(C)n3)ccn2)n1 [A-279, 6-((4-((2-Cyclopropyl-4-(6-methylpyridin-2-yl)thiazol-5-yl)oxy)pyridin-2-yl)amino)-N-methylpicolinamide] | < 100 | < 100
16 | CNC(=O)c1ccnc(Nc2cc(Oc3sc(C4CC4)nc3-c3cccc(C)n3)ccn2)c1 [A-280, 2-((4-((2-Cyclopropyl-4-(6-methylpyridin-2-yl)thiazol-5-yl)oxy)pyridin-2-yl)amino)-N-methylisonicotinamide] | < 100 | < 100
17 | CNC(=O)c1cccc(Nc2cc(Oc3sc(C4CC4)nc3-c3cccc(C)n3)ccn2)c1 [A-281, 3-((4-((2-Cyclopropyl-4-(6-methylpyridin-2-yl)thiazol-5-yl)oxy)pyridin-2-yl)amino)-N-methylbenzamide] | < 100 | 
18 | CNC(=O)c1ccc(Nc2cc(Oc3sc(C4CC4)nc3-c3cccc(C)n3)ccn2)nc1 [A-282, 6-((4-((2-Cyclopropyl-4-(6-methylpyridin-2-yl)thiazol-5-yl)oxy)pyridin-2-yl)amino)-N-methylnicotinamide] | < 100 | 
19 | O=C(O)c1ccc(Nc2cc(Oc3oc(C4CC4)nc3-c3ccccc3)ccn2)nc1 [A-293, 6-((4-((2-Cyclopropyl-4-phenyloxazol-5-yl)oxy)pyridin-2-yl)amino)nicotinic acid] | < 100 | < 100
20 | NC(=O)c1ccc(Nc2cc(Oc3oc(C4CC4)nc3-c3ccccc3)ccn2)nc1 [A-294, 6-((4-((2-Cyclopropyl-4-phenyloxazol-5-yl)oxy)pyridin-2-yl)amino)nicotinamide] | < 100 | < 100
21 | O=C(O)c1ccc(Nc2cc(Oc3oc(C4CC4)nc3-c3ccccc3)ccn2)cc1 [A-295, 4-((4-((2-Cyclopropyl-4-phenyloxazol-5-yl)oxy)pyridin-2-yl)amino)benzoic acid] | < 100 | < 100
22 | NC(=O)c1cccc(Nc2cc(Oc3oc(C4CC4)nc3-c3ccccc3)ccn2)c1 [A-296, 3-((4-((2-Cyclopropyl-4-phenyloxazol-5-yl)oxy)pyridin-2-yl)amino)benzamide] | < 100 | 
23 | CNC(=O)c1cccc(Nc2cc(Oc3oc(C4CC4)nc3-c3ccccc3)ccn2)c1 [A-297, 3-((4-((2-Cyclopropyl-4-phenyloxazol-5-yl)oxy)pyridin-2-yl)amino)-N-methylbenzamide] | < 100 | 
24 | NS(=O)(=O)c1cccc(Nc2cc(Oc3oc(C4CC4)nc3-c3ccccc3)ccn2)c1 [A-298, 3-((4-((2-Cyclopropyl-4-phenyloxazol-5-yl)oxy)pyridin-2-yl)amino)benzenesulfonamide] | < 100 | 
25 | NC(=O)c1cccc(Nc2cc(Oc3oc(C4CC4)nc3-c3ccccc3)ccn2)n1 [A-299, 6-((4-((2-Cyclopropyl-4-phenyloxazol-5-yl)oxy)pyridin-2-yl)amino)picolinamide] | < 100 | 
26 | O=C(O)c1cccc(Nc2cc(Oc3oc(C4CC4)nc3-c3ccccc3)ccn2)c1 [A-300, 3-((4-((2-Cyclopropyl-4-phenyloxazol-5-yl)oxy)pyridin-2-yl)amino)benzoic acid] | < 100 | 
27 | O=C(O)c1cccc(Nc2cc(Oc3oc(C4CC4)nc3-c3ccccc3)ccn2)n1 [A-301, 6-((4-((2-Cyclopropyl-4-phenyloxazol-5-yl)oxy)pyridin-2-yl)amino)picolinic acid] | < 100 | 
28 | CNC(=O)c1cccc(Nc2cc(Oc3oc(C4CC4)nc3-c3ccccc3)ccn2)n1 [A-302, 6-((4-((2-Cyclopropyl-4-phenyloxazol-5-yl)oxy)pyridin-2-yl)amino)-N-methylpicolinamide] | < 100 | 
29 | CCc1nc(-c2ccccc2)c(Oc2ccnc(Nc3ccc(N4CCC(NC)C4)cn3)c2)s1 (centres unmarked) [A-312, 4-((2-Ethyl-4-phenylthiazol-5-yl)oxy)-N-(5-(3-(methylamino)pyrrolidin-1-yl)pyridin-2-yl)pyridin-2-amine] | < 100 | 
